The values below come from patent publication US8487096B2, “Imidazo[1,2-B][1,2,4]triazines as C-MET inhibitors” (Incyte Corporation, priority 2010, dated 2013).

Each structure is given as a SMILES string.

The IC50 is the concentration needed to halve the response being measured.

Sequence of c-Met kinase (histidine-tagged c-Met catalytic domain fusion protein) (P08581 1078-1345): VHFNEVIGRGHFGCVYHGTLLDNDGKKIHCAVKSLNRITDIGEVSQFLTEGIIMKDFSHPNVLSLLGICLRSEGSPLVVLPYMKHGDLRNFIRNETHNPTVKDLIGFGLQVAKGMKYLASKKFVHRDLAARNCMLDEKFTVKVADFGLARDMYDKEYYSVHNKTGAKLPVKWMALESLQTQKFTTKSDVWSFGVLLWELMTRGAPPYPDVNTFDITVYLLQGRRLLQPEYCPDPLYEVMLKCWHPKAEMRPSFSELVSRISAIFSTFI

The assay concerns the target c-Met kinase (histidine-tagged c-Met catalytic domain fusion protein) (Homo sapiens (Human), UniProt P08581). The assay is described as follows: In Vitro c-Met Kinase Enzyme Assays. The class given is biochemical. The note with it: inhibition of c-Met kinase; phosphorylation of poly Glu-Tyr, 5 μM ATP, 25 minutes at 30° C. How it is done:
The compounds of the invention were screened in vitro for their ability to inhibit c-Met kinase activity. The IC50 values for the inhibition of c-Met kinase were determined as described in the literature with some modifications (Wang, X. et al, Mol. Cancer. Ther. 2003, 2(11):1085-1092; Calic, M. et al., Croatica Chemical ACTA. 2005, 78(3):367-374). Briefly, histidine-tagged c-Met catalytic domain fusion protein (Invitrogen, # PV3143) was used for the assay. IC50 measurements were based on the degree of phosphorylation of poly Glu-Tyr (Sigma-Aldrich, # PO275) that was coated (0.01 mg/per well) on 96-well microplates (R&D systems, # DY990). The reaction was carried out in a 50 μL solution containing 50 mM HEPES (pH 7.5), 10 mM MnCl2, 10 mM MgCl2, 0.5 mM DTT, 100 μM Na3VO4, 5 μM ATP (Cell Signaling Technology, #9804) and serial dilutions of the test compound. The reaction lasted for 25 minutes at 30° C. After the reaction was completed, the contents of the plates were discarded. Plates were then washed with TBS-T (250 μL/well, 5×) and then blocked with TBS-T containing 1% BSA for 2 hours. The contents of the plates was discarded, and 100 μL (per well) of peroxidase-labeled anti-phospho-tyrosine antibody (Sigma, # A5964) diluted (1:60,000) in 1% BSA containing TBS-T were then added and incubated for 1 hour. Plates were washed with TBS-T (250 μL/well, 5×) and followed by the color reaction using 100 μL (1:1 mixture) of H2O2 and tetramethylbenzidine (R&D Systems, # DY999). The reaction was stopped in minutes with […] of 2 N H2SO4. The optical density was measured immediately using a microplate reader at 450 nm with wavelength correction at 540 nm. IC50 values were calculated with the GraphPad Prism software. The linear range (i.e., the time period over which the rate remained equivalent to the initial rate) was determined for the kinase and IC50 determinations were performied within this range.
As to `C[C@@H](O)CNC(=O)c1ccc(-c2cnc3ncc(Cc4ccc5ncccc5c4)n3n2)cc1F` [Formula I, 2-fluoro-N-[(2R)-2-hydroxypropyl]-4-[7-(quinolin-6-ylmethyl)imidazo[1,2-b][1,2,4]triazin-2-yl]benzamide], the concentration for half-maximal inhibition (IC50) lay in the range of 0.1 to 1 nM.
Compound `CNC(=O)c1ccc(-c2cnc3ncc(Cc4ccc5ncccc5c4)n3n2)cc1Cl` [Formula II, 2-chloro-N-methyl-4-(7-(quinolin-6-ylmethyl)imidazo[1,2-b][1,2,4]triazin-2-yl)benzamide] registered an IC50 of 0.1 to 1 nM.
To `Cc1nc([C@H](C)NC(=O)c2ccc(-c3cnc4ncc(Cc5ccc6ncccc6c5)n4n3)cc2Cl)no1` [Formula III, 2-chloro-N-[(1S)-1-(5-methyl-1,2,4-oxadiazol-3-yl)ethyl]-4-[7-(quinolin-6-ylmethyl)imidazo[1,2-b][1,2,4]triazin-2-yl]benzamide] belongs 0.1 to 1 nM.
With `CNC(=O)c1ccc(-c2cnc3ncc(Cc4ccc5ncccc5c4)n3n2)cn1` [Formula IV, N-methyl-5-[7-(quinolin-6-ylmethyl)imidazo[1,2-b][1,2,4]triazin-2-yl]pyridine-2-carboxamide] the figure was 0.1 to 1 nM; with `CNC(=O)c1ccc(-c2cnc3ncc(Cc4ccc5ncccc5c4)n3n2)cc1C` [Formula V, N,2-dimethyl-4-[7-(quinolin-6-ylmethyl)imidazo[1,2-b][1,2,4]triazin-2-yl]benzamide], 0.1 to 1 nM.
